From patent US20240132431A1, “METHOD FOR ALKYLATING ACIDIC FUNCTIONAL GROUP” (Chugai Seiyaku Kabushiki Kaisha, priority 2021, published 2024)
One block for each compound: values may come before it.

Target: T1, Bcl-2 protein (Recombinant Human Bcl-2 Protein) (Homo sapiens, UniProt P10415)
T1 construct: purchased Novus NBP2-34889
Assay: Binding evaluation of mixture library compounds to Bcl-2 using AS-MS (affinity selection mass spectrometry)
Conditions: for ASMS ratio (%) n = 1 / ASMS ratio (%) n = 2: ASMS Ratio(%)=(A−C)/B×100; for ASMS ratio (%) n = 1: replicate n = 1; for ASMS ratio (%) n = 2: replicate n = 2
Outline: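 Pooled library of ~1200 compounds ([…] each, final) incubated with recombinant human Bcl-2 (20 μM final) in Tris-HCl pH 7.4, NaCl, Tween-20, DTT buffer, dark, 23° C., 1 h. Bound fraction recovered by SEC spin column, organic extraction, reversed-phase LC/MS. ASMS Ratio (%) = (A−C)/B×100 versus protein-free standard and SEC blank.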

[1] = AS-MS on the mixture of 1200 library compounds
[2] = AS-MS, mixture of 1200 compounds, Bcl-2

T1 sequence (P10415 whole entry): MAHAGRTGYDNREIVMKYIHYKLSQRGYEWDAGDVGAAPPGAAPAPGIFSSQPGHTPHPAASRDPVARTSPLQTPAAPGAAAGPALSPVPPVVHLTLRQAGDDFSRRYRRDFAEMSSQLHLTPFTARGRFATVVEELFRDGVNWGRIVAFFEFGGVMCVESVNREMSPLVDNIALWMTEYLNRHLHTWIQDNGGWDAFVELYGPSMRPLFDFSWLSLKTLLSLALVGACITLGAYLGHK

Compound: CCOc1cncc(-c2cc(OC)c(CN3CCN(c4ccc(C(=O)NS(=O)(=O)c5ccc(NCCSc6ccccc6)c([N+](=O)[O-])c5)cc4)CC3)c(OC)c2)c1 [B2Q060-01, 4-[4-[[4-(5-Ethoxypyridin-3-yl)-2,6-dimethoxyphenyl]methyl]piperazin-1-yl]-N-[3-nitro-4-(2-phenylsulfanylethylamino)phenyl]sulfonylbenzamide]
- ASMS ratio (%) n = 1 (AS-MS, mixture library, Bcl-2): 0.0%
- ASMS ratio (%) n = 2 (AS-MS, mixture library, Bcl-2): 0.0%

Compound: 6-[4-[3-[2-(5-Ethoxypyridin-3-yl)ethynyl]-5-(trifluoromethyl)benzoyl]piperazin-1-yl]-N-propylpyridazine-3-carboxamide [B1M018-01]
- ASMS ratio (%) n = 1 [2]: 0.0%
- ASMS ratio (%) n = 2 [2]: 0.0%

Compound: CCOc1cccc(-c2ccc(C(=O)N3CCN(c4ccc(C(=O)N(CC)CC)nn4)CC3)cc2C)c1 [B4J003-01, 6-[4-[4-(3-Ethoxyphenyl)-3-methylbenzoyl]piperazin-1-yl]-N,N-diethylpyridazine-3-carboxamide]
- ASMS ratio (%) n = 1 [1]: 0.0%
- ASMS ratio (%) n = 2 [1]: 0.0%

Compound: CCOc1cccc(-c2ccc(C(=O)N3CCN(c4ccc(C(=O)NCC(F)(F)F)cc4)CC3)cc2F)c1 [B1K027-01, 4-[4-[4-(3-Ethoxyphenyl)-3-fluorobenzoyl]piperazin-1-yl]-N-(2,2,2-trifluoroethyl)benzamide]
- ASMS ratio (%) n = 1 [2]: −0.8%
- ASMS ratio (%) n = 2 [2]: −3.6%

Compound: CCOc1cncc(-c2cnn(-c3cc(C(=O)N4CCN(c5ccc(C(=O)NS(=O)(=O)CC67CC8CC(CC(C8)C6)C7)nn5)CC4)cc(C(F)(F)F)c3)c2)c1 [B2A022-01, N-(1-Adamantylmethylsulfonyl)-6-[4-[3-[4-(5-ethoxypyridin-3-yl)pyrazol-1-yl]-5-(trifluoromethyl)benzoyl]piperazin-1-yl]pyridazine-3-carboxamide]
- ASMS ratio (%) n = 1 (AS-MS, mixture library, Bcl-2): 27.0%
- ASMS ratio (%) n = 2 (AS-MS, mixture library, Bcl-2): 3.7%

Compound: CCOc1cncc(-c2ccc(CN3CCN(c4ccc(C(=O)NS(=O)(=O)C(C)(C)C)nn4)CC3)cc2C)c1 [B2L074-01, N-tert-Butylsulfonyl-6-[4-[[4-(5-ethoxypyridin-3-yl)-3-methylphenyl]methyl]piperazin-1-yl]pyridazine-3-carboxamide]
- ASMS ratio (%) (n = 1): −1.0%
- ASMS ratio (%) (n = 2): 1.4%

Compound: CCOc1cncc(-c2ccc(CN3CCN(c4ccc(C(=O)NS(=O)(=O)C(C)(C)C)cc4)CC3)cc2C)c1 [B2L048-01]
- ASMS ratio (%) (n = 1): 3.9%
- ASMS ratio (%) (n = 2): −5.0%

Compound: CCOc1cccc(C#Cc2cncc(C(=O)N3CCN(c4ccc(C(=O)N(CC)CC)cc4)CC3)c2)c1 [B4J031-01, 4-[4-[5-[2-(3-Ethoxyphenyl)ethynyl]pyridine-3-carbonyl]piperazin-1-yl]-N,N-diethylbenzamide]
- ASMS ratio (%) n = 1 [1]: 0.1%
- ASMS ratio (%) n = 2 [1]: 0.8%

Compound: CCOc1cccc(-c2ccc(CN3CCN(c4ccc(C(=O)N(CC)CC)cc4)CC3)c3ccccc23)c1 [B4J065-01, 4-[4-[[4-(3-Ethoxyphenyl)naphthalen-1-yl]methyl]piperazin-1-yl]-N,N-diethylbenzamide]
- ASMS ratio (%) n = 1 (AS-MS, mixture library, Bcl-2): 0.0%
- ASMS ratio (%) n = 2 (AS-MS, mixture library, Bcl-2): 0.0%

Compound: CCOc1cncc(-c2cc(OC)c(CN3CCN(c4ccc(C(=O)NS(=O)(=O)CCC(F)(F)F)cc4)CC3)c(OC)c2)c1 [B2N060-01, 4-[4-[[4-(5-Ethoxypyridin-3-yl)-2,6-dimethoxyphenyl]methyl]piperazin-1-yl]-N-(3,3,3-trifluoropropylsulfonyl)benzamide]
- ASMS ratio (%) (n = 1): 0.0%
- ASMS ratio (%) (n = 2): 0.0%

Compound: CCOc1cccc(-c2ccc(CN3CCN(c4ccc(C(=O)NCC(F)(F)F)cc4)CC3)c(OC)c2)c1 [B1K053-01]
- ASMS ratio (%) n = 1 [2]: −0.5%
- ASMS ratio (%) n = 2 [2]: −3.3%

Compound: CCOc1cncc(C#Cc2cc(C(=O)N3CCN(c4ccc(C(=O)NS(C)(=O)=O)nn4)CC3)cc(C(F)(F)F)c2)c1 [B2I020-01, 6-[4-[3-[2-(5-Ethoxypyridin-3-yl)ethynyl]-5-(trifluoromethyl)benzoyl]piperazin-1-yl]-N-methylsulfonylpyridazine-3-carboxamide]
- ASMS ratio (%) n = 1 (AS-MS, mixture library, Bcl-2): 0.0%
- ASMS ratio (%) n = 2 (AS-MS, mixture library, Bcl-2): 0.0%

Compound: CCOc1cncc(-c2csc(C(=O)N3CCN(c4ccc(C(=O)NCC(F)(F)F)cc4)CC3)c2)c1 [B1K024-01, 4-[4-[4-(5-Ethoxypyridin-3-yl)thiophene-2-carbonyl]piperazin-1-yl]-N-(2,2,2-trifluoroethyl)benzamide]
- ASMS ratio (%) n = 1 [2]: 0.0%
- ASMS ratio (%) n = 2 [2]: 0.0%

Compound: CCOc1cncc(-c2ccc(C(=O)N3CCN(c4ccc(C(=O)NS(=O)(=O)CCC(F)(F)F)cc4)CC3)cc2F)c1 [B2N028-01, 4-[4-[4-(5-Ethoxypyridin-3-yl)-3-fluorobenzoyl]piperazin-1-yl]-N-(3,3,3-trifluoropropylsulfonyl)benzamide]
- ASMS ratio (%) (n = 1): −0.7%
- ASMS ratio (%) (n = 2): −0.9%

Compound: CCOc1cncc(-c2cc(OC)c(CN3CCN(c4ccc(C(=O)Nc5ccc(OC)cc5)cc4)CC3)c(OC)c2)c1 [B1O060-01, 4-[4-[[4-(5-Ethoxypyridin-3-yl)-2,6-dimethoxyphenyl]methyl]piperazin-1-yl]-N-(4-methoxyphenyl)benzamide]
- ASMS ratio (%) n = 1 [1]: 0.6%
- ASMS ratio (%) n = 2 [1]: −1.8%

Second part, the compound after the results:

- ASMS ratio (%) n = 1 [1]: 9.1%
- ASMS ratio (%) n = 2 [1]: −5.1%
Compound: CCOc1cncc(C#Cc2cncc(C(=O)N3CCN(c4ccc(C(=O)N(C)CC56CC7CC(CC(C7)C5)C6)cc4)CC3)c2)c1 [B3A032-01, N-(1-Adamantylmethyl)-4-[4-[5-[2-(5-ethoxypyridin-3-yl)ethynyl]pyridine-3-carbonyl]piperazin-1-yl]-N-methylbenzamide]

- ASMS ratio (%) n = 1 [1]: 7.7%
- ASMS ratio (%) n = 2 [1]: 2.4%
Compound: CCOc1cncc(C#Cc2ccccc2CN2CCN(c3ccc(C(=O)N(C)CC45CC6CC(CC(C6)C4)C5)nn3)CC2)c1 [B3A096-01, N-(1-Adamantylmethyl)-6-[4-[[2-[2-(5-ethoxypyridin-3-yl)ethynyl]phenyl]methyl]piperazin-1-yl]-N-methylpyridazine-3-carboxamide]

- ASMS ratio (%) n = 1 [2]: 7.5%
- ASMS ratio (%) n = 2 [2]: 5.8%
Compound: CCOc1cccc(-c2ccc(C(=O)N3CCN(c4ccc(C(=O)NCC56CC7CC(CC(C7)C5)C6)nn4)CC3)cc2C)c1 [B1A003-01, N-(1-Adamantylmethyl)-6-[4-[4-(3-ethoxyphenyl)-3-methylbenzoyl]piperazin-1-yl]pyridazine-3-carboxamide]

- ASMS ratio (%) n = 1 (AS-MS, mixture library, Bcl-2): 1.6%
- ASMS ratio (%) n = 2 (AS-MS, mixture library, Bcl-2): 13.8%
Compound: CCOc1cccc(C#Cc2ccccc2CN2CCN(c3ccc(C(=O)NS(=O)(=O)CC45CC6CC(CC(C6)C4)C5)nn3)CC2)c1 [B2A095-01, N-(1-Adamantylmethylsulfonyl)-6-[4-[[2-[2-(3-ethoxyphenyl)ethynyl]phenyl]methyl]piperazin-1-yl]pyridazine-3-carboxamide]

- ASMS ratio (%) n = 1 [1]: 3.2%
- ASMS ratio (%) n = 2 [1]: 2.5%
Compound: CCOc1cccc(-c2ccccc2CN2CCN(c3ccc(C(=O)N(C)CC45CC6CC(CC(C6)C4)C5)cc3)CC2)c1 [B3A045-01, N-(1-Adamantylmethyl)-4-[4-[[2-(3-ethoxyphenyl)phenyl]methyl]piperazin-1-yl]-N-methylbenzamide]

- ASMS ratio (%) n = 1 [2]: 0.0%
- ASMS ratio (%) n = 2 [2]: 15.4%
Compound: CCOc1cccc(-c2ccc(CN3CCN(c4ccc(C(=O)NCC56CC7CC(CC(C7)C5)C6)nn4)CC3)c3ccccc23)c1 [B1A091-01, N-(1-Adamantylmethyl)-6-[4-[[4-(3-ethoxyphenyl)naphthalen-1-yl]methyl]piperazin-1-yl]pyridazine-3-carboxamide]

- ASMS ratio (%) n = 1 (AS-MS, mixture library, Bcl-2): −2.7%
- ASMS ratio (%) n = 2 (AS-MS, mixture library, Bcl-2): −22.1%
Compound: CCOc1cncc(-c2ccccc2CN2CCN(c3ccc(C(=O)NS(=O)(=O)CC45CC6CC(CC(C6)C4)C5)cc3)CC2)c1 [B2A046-01, N-(1-Adamantylmethylsulfonyl)-4-[4-[[2-(5-ethoxypyridin-3-yl)phenyl]methyl]piperazin-1-yl]benzamide]

- ASMS ratio (%) n = 1 (AS-MS, mixture library, Bcl-2): 7.4%
- ASMS ratio (%) n = 2 (AS-MS, mixture library, Bcl-2): −10.4%
Compound: CCOc1cccc(-c2cc(C(=O)N3CCN(c4ccc(C(=O)NS(=O)(=O)CC56CC7CC(CC(C7)C5)C6)cc4)CC3)cc(C(F)(F)F)c2)c1 [B2A039-01, N-(1-Adamantylmethylsulfonyl)-4-[4-[3-(3-ethoxyphenyl)-5-(trifluoromethyl)benzoyl]piperazin-1-yl]benzamide]

- ASMS ratio (%) n = 1 [2]: 5.2%
- ASMS ratio (%) n = 2 [2]: −3.2%
Compound: CCOc1cncc(-c2ccccc2CCC(=O)N2CCN(c3ccc(C(=O)NCC45CC6CC(CC(C6)C4)C5)cc3)CC2)c1 [B1A034-01, N-(1-Adamantylmethyl)-4-[4-[3-[2-(5-ethoxypyridin-3-yl)phenyl]propanoyl]piperazin-1-yl]benzamide]

- ASMS ratio (%) n = 1 [1]: −7.5%
- ASMS ratio (%) n = 2 [1]: −5.5%
Compound: CCOc1cncc(-c2cc(CN3CCN(c4ccc(C(=O)N(C)CC56CC7CC(CC(C7)C5)C6)cc4)CC3)cc(OC(F)(F)F)c2)c1 [B3A064-01, N-(1-Adamantylmethyl)-4-[4-[[3-(5-ethoxypyridin-3-yl)-5-(trifluoromethoxy)phenyl]methyl]piperazin-1-yl]-N-methylbenzamide]

- ASMS ratio (%) n = 1 [2]: 0.3%
- ASMS ratio (%) n = 2 [2]: −17.1%
Compound: CCOc1cccc(C#Cc2ccccc2CN2CCN(c3ccc(C(=O)NCC45CC6CC(CC(C6)C4)C5)nn3)CC2)c1 [B1A095-01, N-(1-Adamantylmethyl)-6-[4-[[2-[2-(3-ethoxyphenyl)ethynyl]phenyl]methyl]piperazin-1-yl]pyridazine-3-carboxamide]

- ASMS ratio (%) n = 1 (AS-MS, mixture library, Bcl-2): 0.0%
- ASMS ratio (%) n = 2 (AS-MS, mixture library, Bcl-2): 0.0%
Compound: CCOc1cccc(-c2ccccc2CCC(=O)N2CCN(c3ccc(C(=O)NS(C)(=O)=O)cc3)CC2)c1 [B2I033-01, 4-[4-[3-[2-(3-Ethoxyphenyl)phenyl]propanoyl]piperazin-1-yl]-N-methylsulfonylbenzamide]
